Measurements published in ChEMBL document CHEMBL4177616, “Potent anti-melanogenic activity and favorable toxicity profile of selected 4-phenyl hydroxycoumarins in the zebrafish model and the computational molecular modeling studies” (Bioorg Med Chem, 2017).

Assays:
Danio rerio [1] = species on record: Danio rerio; experiment: Toxicity in wild type zebrafish embryos assessed as growth retardation at 20 ug/ml treated for 96 hrs post fertilization starting from 6 hrs post fertilization by inverted microscopic analysis relative to control; assay type: organism-based; details: in vivo
Danio rerio [2] = species on record: Danio rerio; experiment: Toxicity in wild type zebrafish embryos assessed as unhatched embryo at 15 ug/ml treated for 96 hrs post fertilization starting from 6 hrs post fertilization by inverted microscopic analysis relative to control; assay type: organism-based; details: in vivo
Danio rerio [3] = experiment: Toxicity in wild type zebrafish embryos assessed as pericardial edema at 25 ug/ml treated for 96 hrs post fertilization starting from 6 hrs post fertilization by inverted microscopic analysis relative to control; assay type: organism-based; details: in vivo
Danio rerio [4] = species on record: Danio rerio; experiment: Toxicity in wild type zebrafish embryos assessed as normal embryo at 5 ug/ml treated for 96 hrs post fertilization starting from 6 hrs post fertilization by inverted microscopic analysis relative to control; assay type: organism-based; details: in vivo
Danio rerio [5] = species on record: Danio rerio; experiment: Toxicity in wild type zebrafish embryos assessed as teratogenic embryo at 20 ug/ml treated for 96 hrs post fertilization starting from 6 hrs post fertilization by inverted microscopic analysis relative to control; assay type: organism-based; details: in vivo
Danio rerio [6] = species on record: Danio rerio; experiment: Toxicity in wild type zebrafish embryos assessed as skeletal deformities at 20 ug/ml treated for 96 hrs post fertilization starting from 6 hrs post fertilization by inverted microscopic analysis relative to control; assay type: organism-based; details: in vivo
Danio rerio [7] = species on record: Danio rerio; experiment: Toxicity in wild type zebrafish embryos assessed as head malformation at 10 ug/ml treated for 96 hrs post fertilization starting from 6 hrs post fertilization by inverted microscopic analysis relative to control; assay type: organism-based; details: in vivo
Danio rerio [8] = experiment: Toxicity in wild type zebrafish embryos assessed as pericardial edema at 20 ug/ml treated for 96 hrs post fertilization starting from 6 hrs post fertilization by inverted microscopic analysis relative to control; assay type: organism-based; details: in vivo
Danio rerio [9] = experiment: Toxicity in wild type zebrafish embryos assessed as yolk edema at 5 ug/ml treated for 96 hrs post fertilization starting from 6 hrs post fertilization by inverted microscopic analysis relative to control; assay type: organism-based; details: in vivo
Melanocyte [10] = experiment: Cytotoxicity against wild type zebrafish embryo melanocytes assessed as punctate cells at 12.5 ug/ml treated for 72 hrs post fertilization starting from 6 to 24 hrs post fertilization; assay type: cell-based, Danio rerio
Danio rerio [11] = species on record: Danio rerio; experiment: Toxicity in wild type zebrafish embryos assessed as notochord at 25 ug/ml treated for 96 hrs post fertilization starting from 6 hrs post fertilization by inverted microscopic analysis relative to control; assay type: organism-based; details: in vivo
Danio rerio [12] = species on record: Danio rerio; experiment: Toxicity in wild type zebrafish embryos assessed as blood circulation at 5 ug/ml treated for 96 hrs post fertilization starting from 6 hrs post fertilization by inverted microscopic analysis relative to control; assay type: organism-based; details: in vivo
Danio rerio [13] = species on record: Danio rerio; experiment: Toxicity in wild type zebrafish embryos assessed as teratogenic embryo at 50 ug/ml treated for 96 hrs post fertilization starting from 6 hrs post fertilization by inverted microscopic analysis relative to control; assay type: organism-based; details: in vivo
Danio rerio [14] = species on record: Danio rerio; experiment: Toxicity in wild type zebrafish embryos assessed as normal embryo at 50 ug/ml treated for 96 hrs post fertilization starting from 6 hrs post fertilization by inverted microscopic analysis relative to control; assay type: organism-based; details: in vivo
Danio rerio [15] = experiment: Toxicity in wild type zebrafish embryos assessed as pericardial edema at 15 ug/ml treated for 96 hrs post fertilization starting from 6 hrs post fertilization by inverted microscopic analysis relative to control; assay type: organism-based; details: in vivo
Danio rerio [16] = species on record: Danio rerio; experiment: Toxicity in wild type zebrafish embryos assessed as blood circulation at 25 ug/ml treated for 96 hrs post fertilization starting from 6 hrs post fertilization by inverted microscopic analysis relative to control; assay type: organism-based; details: in vivo
Danio rerio [17] = experiment: Toxicity in wild type zebrafish embryos assessed as yolk edema at 50 ug/ml treated for 96 hrs post fertilization starting from 6 hrs post fertilization by inverted microscopic analysis relative to control; assay type: organism-based; details: in vivo
Melanocyte [18] = experiment: Cytotoxicity against wild type zebrafish embryo melanocytes assessed as change in morphology at 2.5 mg/ml treated for 72 hrs post fertilization starting from 6 to 24 hrs post fertilization; assay type: cell-based, Danio rerio
Danio rerio [19] = species on record: Danio rerio; experiment: Toxicity in wild type zebrafish embryos assessed as teratogenic embryo at 10 ug/ml treated for 96 hrs post fertilization starting from 6 hrs post fertilization by inverted microscopic analysis relative to control; assay type: organism-based; details: in vivo
Danio rerio [20] = species on record: Danio rerio; experiment: Toxicity in wild type zebrafish embryos assessed as otoliths at 5 ug/ml treated for 96 hrs post fertilization starting from 6 hrs post fertilization by inverted microscopic analysis relative to control; assay type: organism-based; details: in vivo
Danio rerio [21] = species on record: Danio rerio; experiment: Toxicity in wild type zebrafish embryos assessed as head malformation at 50 ug/ml treated for 96 hrs post fertilization starting from 6 hrs post fertilization by inverted microscopic analysis relative to control; assay type: organism-based; details: in vivo
Danio rerio [22] = experiment: Toxicity in wild type zebrafish embryos assessed as yolk edema at 10 ug/ml treated for 96 hrs post fertilization starting from 6 hrs post fertilization by inverted microscopic analysis relative to control; assay type: organism-based; details: in vivo
Danio rerio [23] = species on record: Danio rerio; experiment: Toxicity in wild type zebrafish embryos assessed as eyes at 50 ug/ml treated for 96 hrs post fertilization starting from 6 hrs post fertilization by inverted microscopic analysis relative to control; assay type: organism-based; details: in vivo
Danio rerio [24] = experiment: Toxicity in wild type zebrafish embryos assessed as yolk edema at 20 ug/ml treated for 96 hrs post fertilization starting from 6 hrs post fertilization by inverted microscopic analysis relative to control; assay type: organism-based; details: in vivo
Danio rerio [25] = experiment: Toxicity in wild type zebrafish embryos assessed as yolk edema at 15 ug/ml treated for 96 hrs post fertilization starting from 6 hrs post fertilization by inverted microscopic analysis relative to control; assay type: organism-based; details: in vivo
Danio rerio [26] = species on record: Danio rerio; experiment: Toxicity in wild type zebrafish embryos assessed as notochord at 50 ug/ml treated for 96 hrs post fertilization starting from 6 hrs post fertilization by inverted microscopic analysis relative to control; assay type: organism-based; details: in vivo
Danio rerio [27] = species on record: Danio rerio; experiment: Toxicity in wild type zebrafish embryos assessed as unhatched embryo at 25 ug/ml treated for 96 hrs post fertilization starting from 6 hrs post fertilization by inverted microscopic analysis relative to control; assay type: organism-based; details: in vivo
Danio rerio [28] = species on record: Danio rerio; experiment: Toxicity in wild type zebrafish embryos assessed as heart beat at 5 ug/ml treated for 96 hrs post fertilization starting from 6 hrs post fertilization by inverted microscopic analysis relative to control; assay type: organism-based; details: in vivo
Danio rerio [29] = species on record: Danio rerio; experiment: Toxicity in wild type zebrafish embryos assessed as eyes at 10 ug/ml treated for 96 hrs post fertilization starting from 6 hrs post fertilization by inverted microscopic analysis relative to control; assay type: organism-based; details: in vivo
Danio rerio [30] = species on record: Danio rerio; experiment: Toxicity in wild type zebrafish embryos assessed as normal embryo at 20 ug/ml treated for 96 hrs post fertilization starting from 6 hrs post fertilization by inverted microscopic analysis relative to control; assay type: organism-based; details: in vivo
Danio rerio [31] = species on record: Danio rerio; experiment: Toxicity in wild type zebrafish embryos assessed as otoliths at 50 ug/ml treated for 96 hrs post fertilization starting from 6 hrs post fertilization by inverted microscopic analysis relative to control; assay type: organism-based; details: in vivo
Danio rerio [32] = species on record: Danio rerio; experiment: Toxicity in wild type zebrafish embryos assessed as notochord at 10 ug/ml treated for 96 hrs post fertilization starting from 6 hrs post fertilization by inverted microscopic analysis relative to control; assay type: organism-based; details: in vivo
Danio rerio [33] = species on record: Danio rerio; experiment: Toxicity in wild type zebrafish embryos assessed as notochord at 5 ug/ml treated for 96 hrs post fertilization starting from 6 hrs post fertilization by inverted microscopic analysis relative to control; assay type: organism-based; details: in vivo
Danio rerio [34] = species on record: Danio rerio; experiment: Toxicity in wild type zebrafish embryos assessed as head malformation at 5 ug/ml treated for 96 hrs post fertilization starting from 6 hrs post fertilization by inverted microscopic analysis relative to control; assay type: organism-based; details: in vivo
[35] = Toxicity in wild type zebrafish embryos assessed as dead embryo at 10 ug/ml treated for 96 hrs post fertilization starting from 6 hrs post fertilization by inverted microscopic analysis relative to control; assay type: organism-based, Danio rerio; details: in vivo, read-out: Activity
[36] = Toxicity in wild type zebrafish embryos assessed as dead embryo at 25 ug/ml treated for 96 hrs post fertilization starting from 6 hrs post fertilization by inverted microscopic analysis relative to control; assay type: organism-based, Danio rerio; details: in vivo, read-out: Activity
Melanocyte [37] = experiment: Cytotoxicity against wild type zebrafish embryo melanocytes assessed as number of melanocyte at 2.5 mg/ml treated for 72 hrs post fertilization starting from 6 to 24 hrs post fertilization; assay type: cell-based, Danio rerio

## O=c1cc(-c2ccccc2)c2ccc(O)cc2o1
Danio rerio [1]
  Activity: 0%
Danio rerio [2]
  Activity: 0%
Danio rerio [3]
  Activity: 0%
Danio rerio [4]
  Activity: 100%
Danio rerio [5]
  Activity: 0%
Danio rerio [6]
  Activity: 0%
Danio rerio [7]
  Activity: 0%
Danio rerio [8]
  Activity: 0%
Danio rerio [9]
  Activity: 0%
Melanocyte [10]
  Activity: Non-Toxic
Danio rerio [11]
  Activity: 0%
Danio rerio [12]
  Activity: 0%
Danio rerio [13]
  Activity: 0%
Danio rerio [14]
  Activity: 100%
Danio rerio [15]
  Activity: 0%
Danio rerio [16]
  Activity: 0%
Danio rerio [17]
  Activity: 0%
Melanocyte [18]
  Activity: Non-Toxic
Danio rerio [19]
  Activity: 0%
Danio rerio [20]
  Activity: 0%
Danio rerio [21]
  Activity: 0%
Danio rerio [22]
  Activity: 0%
Danio rerio [23]
  Activity: 0%
Danio rerio [24]
  Activity: 0%
Danio rerio [25]
  Activity: 0%
Danio rerio [26]
  Activity: 0%
Danio rerio [27]
  Activity: 0%
Danio rerio [28]
  Activity: 0%
Danio rerio [29]
  Activity: 0%
Danio rerio [30]
  Activity: 100%
Danio rerio [31]
  Activity: 0%
Danio rerio [32]
  Activity: 0%
Danio rerio [33]
  Activity: 0%
Danio rerio [34]
  Activity: 0%
[35]
  mortality at 10 ug/ml: 0%
[36]
  mortality at 25 ug/ml: 0%
Melanocyte [37]
  Activity: Non-Toxic

## O=c1cc(-c2ccccc2)c2c(O)cc(O)cc2o1
Danio rerio [1]
  Activity: 0%
Danio rerio [2]
  Activity: 0%
Danio rerio [3]
  Activity: 0%
Danio rerio [4]
  Activity: 100%
Danio rerio [5]
  Activity: 0%
Danio rerio [6]
  Activity: 0%
Danio rerio [7]
  Activity: 0%
Danio rerio [8]
  Activity: 0%
Danio rerio [9]
  Activity: 0%
Melanocyte [10]
  Activity: Non-Toxic
Danio rerio [11]
  Activity: 0%
Danio rerio [12]
  Activity: 0%
Danio rerio [13]
  Activity: 25%
Danio rerio [14]
  Activity: 75%
Danio rerio [15]
  Activity: 0%
Danio rerio [16]
  Activity: 0%
Danio rerio [17]
  Activity: 0%
Melanocyte [18]
  Activity: Non-Toxic
Danio rerio [19]
  Activity: 0%
Danio rerio [20]
  Activity: 0%
Danio rerio [21]
  Activity: 0%
Danio rerio [22]
  Activity: 0%
Danio rerio [23]
  Activity: 0%
Danio rerio [24]
  Activity: 0%
Danio rerio [25]
  Activity: 0%
Danio rerio [26]
  Activity: 0%
Danio rerio [27]
  Activity: 0%
Danio rerio [28]
  Activity: 0%
Danio rerio [29]
  Activity: 0%
Danio rerio [30]
  Activity: 100%
Danio rerio [31]
  Activity: 0%
Danio rerio [32]
  Activity: 0%
Danio rerio [33]
  Activity: 0%
Danio rerio [34]
  Activity: 0%
[35]
  mortality at 10 ug/ml: 0%
[36]
  mortality at 25 ug/ml: 0%
Melanocyte [37]
  Activity: Non-Toxic

## O=c1cc(CO)occ1O [KOJIC ACID]
Danio rerio [3]
  Activity: 0%
Melanocyte [10]
  Activity: Non-Toxic
Danio rerio [11]
  Activity: 0%
Danio rerio [16]
  Activity: 0%
Melanocyte [18]
  Activity: Non-Toxic
Danio rerio [27]
  Activity: 0%
[36]
  mortality at 25 ug/ml: 0%
Melanocyte [37]
  Activity: Non-Toxic

## Oc1ccc(O)cc1 [HYDROQUINONE]
Danio rerio [1]
  Activity: 100%
Danio rerio [3]
  Activity: 100%
Danio rerio [4]
  Activity: 0%
Danio rerio [5]
  Activity: 30%
Danio rerio [7]
  Activity: 100%
Danio rerio [8]
  Activity: 100%
Danio rerio [9]
  Activity: 0%
Melanocyte [10]
  Activity: Non-Toxic
Danio rerio [11]
  Activity: 0%
Danio rerio [12]
  Activity: 0%
Danio rerio [13]
  Activity: 0%
Danio rerio [14]
  Activity: 0%
Danio rerio [16]
  Activity: 100%
Danio rerio [19]
  Activity: 36.7%
Danio rerio [20]
  Activity: 0%
Danio rerio [22]
  Activity: 0%
Danio rerio [24]
  Activity: 100%
Danio rerio [27]
  Activity: 100%
Danio rerio [28]
  Activity: 0%
Danio rerio [29]
  Activity: 80%
Danio rerio [30]
  Activity: 0%
Danio rerio [32]
  Activity: 0%
Danio rerio [33]
  Activity: 0%
Danio rerio [34]
  Activity: 0%
[35]
  mortality at 10 ug/ml: 63.3%
[36]
  mortality at 25 ug/ml: 93.3%
